Assay results from ChEMBL document CHEMBL1151872, “Antagonists of the human A(2A) receptor. Part 5: Highly bio-available pyrimidine-4-carboxamides” (Bioorg Med Chem Lett, 2009).
Values after ≈ are worked out from the molar mass of the structure shown.

Tests used:
[1] = biological target: T1, Adenosine receptor A2b (Homo sapiens, UniProt P29275); assay: Binding affinity to adenosine A2B receptor
T1 sequence (P29275 whole entry): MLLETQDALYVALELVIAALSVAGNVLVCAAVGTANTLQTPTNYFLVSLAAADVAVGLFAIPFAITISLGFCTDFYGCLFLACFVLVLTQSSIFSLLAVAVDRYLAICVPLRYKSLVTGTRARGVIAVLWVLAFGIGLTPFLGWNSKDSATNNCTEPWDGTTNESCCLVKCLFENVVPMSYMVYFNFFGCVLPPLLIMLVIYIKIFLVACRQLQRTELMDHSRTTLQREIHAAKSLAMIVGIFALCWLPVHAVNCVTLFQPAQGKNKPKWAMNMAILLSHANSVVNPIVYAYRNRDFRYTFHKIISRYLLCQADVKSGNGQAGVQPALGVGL

[2] = tested on: Mus musculus; assay: Reversal of haloperidol-induced locomotor movement deficit in po dosed mouse assessed as minimum effective dose administered 15 mins before testing; settings: read-out: MED
[3] = biological target: T2, Adenosine receptor A2a (Homo sapiens, UniProt P29274)
T2 sequence (P29274 whole entry): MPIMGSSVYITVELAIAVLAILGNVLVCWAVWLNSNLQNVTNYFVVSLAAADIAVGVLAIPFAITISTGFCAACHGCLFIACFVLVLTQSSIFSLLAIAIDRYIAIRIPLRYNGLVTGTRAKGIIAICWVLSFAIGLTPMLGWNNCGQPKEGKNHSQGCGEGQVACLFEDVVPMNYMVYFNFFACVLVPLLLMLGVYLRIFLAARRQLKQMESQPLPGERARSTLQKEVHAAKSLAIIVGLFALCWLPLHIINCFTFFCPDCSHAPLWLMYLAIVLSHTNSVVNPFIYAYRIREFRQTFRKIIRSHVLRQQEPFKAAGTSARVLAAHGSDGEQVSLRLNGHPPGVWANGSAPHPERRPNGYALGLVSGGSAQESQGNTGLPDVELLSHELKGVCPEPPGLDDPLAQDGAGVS
Description: Displacement of [3H]CGS21680 from human adenosine A2A receptor

[4] = biological target: T2, Adenosine receptor A2a; remark: listed apart in the source
Description: Agonist activity against human adenosine A2A receptor assessed as calcium mobilization by FLIPR assay

[5] = biological target: T3, Adenosine receptor A1 (Homo sapiens, UniProt P30542)
T3 sequence (P30542 whole entry): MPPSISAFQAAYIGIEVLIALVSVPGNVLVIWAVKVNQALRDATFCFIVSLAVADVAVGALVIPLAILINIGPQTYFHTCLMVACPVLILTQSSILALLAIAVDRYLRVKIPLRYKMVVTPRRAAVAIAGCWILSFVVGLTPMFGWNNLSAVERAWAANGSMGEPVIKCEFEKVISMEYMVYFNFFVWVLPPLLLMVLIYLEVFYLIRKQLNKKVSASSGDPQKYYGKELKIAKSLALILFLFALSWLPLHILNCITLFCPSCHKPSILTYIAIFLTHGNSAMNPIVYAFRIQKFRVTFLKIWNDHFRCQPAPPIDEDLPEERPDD
Description: Displacement of [3H]CGS21680 from human adenosine A1 receptor

[6] = biological target: T4, Adenosine receptor A3 (Homo sapiens, UniProt P0DMS8); assay: Binding affinity to adenosine A3 receptor
T4 sequence (P0DMS8 whole entry): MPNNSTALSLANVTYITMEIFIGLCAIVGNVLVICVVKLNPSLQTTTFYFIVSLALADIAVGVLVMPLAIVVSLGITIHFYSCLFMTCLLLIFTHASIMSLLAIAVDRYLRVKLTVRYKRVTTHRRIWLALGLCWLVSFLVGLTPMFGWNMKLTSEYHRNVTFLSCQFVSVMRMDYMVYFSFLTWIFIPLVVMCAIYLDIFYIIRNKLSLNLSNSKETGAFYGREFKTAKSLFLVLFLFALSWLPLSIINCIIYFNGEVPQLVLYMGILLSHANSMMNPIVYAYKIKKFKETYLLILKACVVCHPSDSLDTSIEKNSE

[7] = species: Homo sapiens; assay: Selectivity for human adenosine A2A receptor over human adenosine A3 receptor
[8] = species: Homo sapiens; assay: Selectivity for human adenosine A2A receptor over human adenosine A2B receptor
[9] = tested on: Brain; assay: Drug uptake in Sprague-Dawley rat brain at 2 mg/kg, iv; assay type: ADME, organism-based; design: dose 2 mg/kg, route intravenous; settings: in vivo
[10] = Inhibition of Cytochrome P450; assay type: ADME
[11] = Half life in po dosed Sprague-Dawley rat plasma; assay type: ADME, organism-based
[12] = Half life in po dosed Sprague-Dawley rat brain; assay type: ADME, organism-based
[13] = Tmax in Sprague-Dawley rat plasma; assay type: ADME, organism-based
[14] = Aqueous solubility of the compound; assay type: physicochemical

SMILES	Ki [1]	minimal effective dose [2]	Ki [3]	EC50 [4]	Ki [5]	Ki [6]	further results
Nc1cccc(CNC(=O)c2cc(-c3ccco3)nc(N)n2)n1	444 nM	1 mg/kg	7 nM	≥ 10000 nM	131 nM	1480 nM	–
Nc1nc(C(=O)NCc2ccncc2)cc(-c2ccco2)n1	–	–	388 nM	–	1340 nM	–	–
Nc1nc(C(=O)NCc2ccc(F)cc2)cc(-c2ccco2)n1	–	–	20 nM	–	140 nM	–	–
COc1ccccc1C(=O)Nc1nc(N)nc(-c2ccco2)c1[N+](=O)[O-]	–	–	170 nM	–	770 nM	–	–
Nc1nc(NC(=O)c2ccccc2)c([N+](=O)[O-])c(-c2ccco2)n1	–	–	308 nM	–	2060 nM	–	–
COc1ccccc1CNC(=O)c1cc(-c2ccco2)nc(N)n1	156 nM	20 mg/kg	3.5 nM	≥ 10000 nM	34.5 nM	402 nM	–
CCn1c(=O)c2c(nc(/C=C/c3ccc(OC)c(OC)c3)n2C)n(CC)c1=O [ISTRADEFYLLINE]	–	0.3 mg/kg	–	–	–	–	–
COc1ccc(CNC(=O)c2cc(-c3ccco3)nc(N)n2)cc1	–	–	79 nM	–	157 nM	–	–
Nc1nc(C(=O)NCc2ccc(Cl)cc2)cc(-c2ccco2)n1	–	–	17.5 nM	–	80 nM	–	–
Nc1nc(C(=O)NCc2ccco2)cc(-c2ccco2)n1	–	–	14 nM	–	214 nM	–	–
Nc1nc(C(=O)NCc2cccnc2)cc(-c2ccco2)n1	5870 nM	–	9.4 nM	≥ 10000 nM	124 nM	6440 nM	Ratio Ki [7]: < 1000; Ratio Ki [8]: < 1000
Nc1nc(C(=O)NCc2ccccc2F)cc(-c2ccco2)n1	67 nM	30 mg/kg	3.5 nM	≥ 10000 nM	54 nM	335 nM	–
Nc1nc(C(=O)NCc2ccccc2)cc(-c2ccco2)n1	858 nM	–	7.6 nM	≥ 10000 nM	58 nM	857 nM	–
COCc1cccc(CNC(=O)c2cc(-c3ccco3)nc(N)n2)n1	460 nM	0.1 mg/kg	1.7 nM	≥ 10000 nM	42 nM	1740 nM	Drug uptake [9]: 85%; Activity [10]: Not Active; Ratio Ki [7]: < 1000; half-life [11]: 1 h; Ratio Ki [8]: < 1000; half-life [12]: 1 h; Tmax [13]: 0.25 h; solubility [14]: 450 µM (≈ 153 µg/mL)
Nc1nc(NC(=O)c2ccccc2OC(F)(F)F)c([N+](=O)[O-])c(-c2ccco2)n1	–	–	16 nM	–	298 nM	–	–
Cc1ccccc1CNC(=O)c1cc(-c2ccco2)nc(N)n1	917 nM	30 mg/kg	2.2 nM	≥ 10000 nM	73 nM	586 nM	–
COc1ccccc1CC(=O)Nc1nc(N)nc(-c2ccco2)c1[N+](=O)[O-]	–	–	10 nM	–	884 nM	–	–
Cc1cccc(CNC(=O)c2cc(-c3ccco3)nc(N)n2)c1	402 nM	3 mg/kg	2.6 nM	≥ 10000 nM	38 nM	1530 nM	Ratio Ki [7]: < 1000; Ratio Ki [8]: < 1000
Nc1nc(NC(=O)c2cccnc2)c([N+](=O)[O-])c(-c2ccco2)n1	–	–	220 nM	–	3540 nM	–	–
Nc1nc(C(=O)NCc2cccc(Cl)c2)cc(-c2ccco2)n1	184 nM	–	3.7 nM	≥ 10000 nM	12.2 nM	507 nM	–
Cc1ccc(CNC(=O)c2cc(-c3ccco3)nc(N)n2)cc1	1240 nM	–	9.5 nM	≥ 10000 nM	102 nM	1850 nM	–
Nc1nc(C(=O)NCc2ccccc2Cl)cc(-c2ccco2)n1	137 nM	30 mg/kg	2.6 nM	≥ 10000 nM	72 nM	414 nM	–
Nc1nc(NC(=O)c2ccccc2F)c([N+](=O)[O-])c(-c2ccco2)n1	–	–	23 nM	–	311 nM	–	–
COc1cccc(CNC(=O)c2cc(-c3ccco3)nc(N)n2)c1	121 nM	–	6.1 nM	≥ 10000 nM	47 nM	1100 nM	–
Nc1nc(NC(=O)c2ccncc2)c([N+](=O)[O-])c(-c2ccco2)n1	–	–	153 nM	–	2000 nM	–	–
Nc1nc(C(=O)NCc2cccc(CO)n2)cc(-c2ccco2)n1	–	30 mg/kg	9.3 nM	–	260 nM	–	–
Nc1nc(C(=O)NCc2ccccn2)cc(-c2ccco2)n1	754 nM	3 mg/kg	–	–	–	1390 nM	–
Nc1nc(C(=O)NCc2cccc(F)c2)cc(-c2ccco2)n1	924 nM	–	4.8 nM	≥ 10000 nM	39 nM	1060 nM	–
